Marks after values point to notes of the source that are not given here.
Key:
intestinal ABCG5 mRNA = assay: Example 1: intestinal ABCG5 mRNA expression, real-time PCR; assay type: in vivo, Male Golden Syrian hamsters; conditions: intestine; relative expression in reference to a housekeeping gene; Example 1, 4 weeks
Protocol: Experiments were also conducted to determine the effect on the expression of genes associated with cholesterol in the liver and intestine. Total RNA was extracted and mRNA was converted to cDNA. The mRNA expression was measured by real-time PCR with four repeats and calculated as relative expression in reference to internal control of a housekeeping gene for each sample. […] The function of ABCG5 and ABCG8 in the intestine is to transport cholesterol out of enterocytes and back to the intestine for elimination via the feces. […] The observation of our study (Example 1) has provided a strong support to the synergistic action of BBRCI and PS on cholesterol reduction.

[1] = tested on: liver HMG-CoA reductase mRNA; assay: Example 1: liver HMG-CoA reductase mRNA expression, real-time PCR; assay type: in vivo, Male Golden Syrian hamsters; conditions: relative expression in reference to a housekeeping gene, Example 1, 4 weeks
Protocol: Experiments were also conducted to determine the effect on the expression of genes associated with cholesterol in the liver and intestine. Total RNA was extracted and mRNA was converted to cDNA. The mRNA expression was measured by real-time PCR with four repeats and calculated as relative expression in reference to internal control of a housekeeping gene for each sample. Table 5 and FIG. 8a summarize the effect of BBRCI and PS alone or in combination on liver HMG-CoA reductase. […] HMG-CoA reductase is a rate-limiting enzyme in cholesterol biosynthesis. […] When a strong action occurs on cholesterol reduction through inhibiting cholesterol absorption, cholesterol biosynthesis is increased as compensatory response to the cholesterol loss due to the reduced absorption. The powerful synergistic action of BBRCI and PS on HMG-CoA reductase mRNA expression implies that the combination of these materials may act synergistically to reduce blood cholesterol, possibly by inhibiting cholesterol absorption.

liver CYP27A1 mRNA = assay: Example 1: liver CYP27A1 mRNA expression, real-time PCR; assay type: in vivo, Male Golden Syrian hamsters; conditions: relative expression in reference to a housekeeping gene, Example 1, 4 weeks
Protocol: Experiments were also conducted to determine the effect on the expression of genes associated with cholesterol in the liver and intestine. Total RNA was extracted and mRNA was converted to cDNA. The mRNA expression was measured by real-time PCR with four repeats and calculated as relative expression in reference to internal control of a housekeeping gene for each sample. Table 5, FIG. 8b and FIG. 8c summarize the effect of BBRCI and PS on the mRNA expression of CYP7A1 and CYP27A1 in the liver. BBRCI and PS alone tended to increase mRNA expression of both genes. CYP7A1 and CYP27A1 are two rate-limiting enzymes controlling bile acid synthesis, which is one mechanism through which the body removes cholesterol by converting it into bile acids. When BBRCI and PS were combined, a synergistic action appeared to happen.

[2] = tested on: hamsters fed a diet containing 0.25% cholesterol; assay: Example 2: tissue weight to body weight ratio; assay type: in vivo, male Golden Syrian hamsters; conditions: Example 2, 5 weeks; BBRCI 100 mg/kg·d and/or PS 1% (w/w); means±SD, n=12
Protocol: In this example, a controlled, five week animal study was performed. A total of 48 male Golden Syrian hamsters were randomized into 4 groups of 12 and fed isocaloric diets as follows. Hamster husbandry, living and feeding conditions were similar to that used for Example 1. • Control a semi-synthetic casein-corn starch-sucrose diet that contained 0.25% (w/w) cholesterol • BBRCI control diet containing 100 mg/kg·d of BBRCI • PS control diet containing 1% (w/w) PS • BBRCI+PS control diet containing 100 mg/kg·d BBRCI and 1% (w/w) PS Table 7 summarizes the effect on tissue weight to body weight ratio (values are means±SD). Data were analyzed by one-way ANOVA followed by Tukey test when a significant treatment effect was detected. A significant difference was indicated by a p<0.05. […] The combination of BBRCI and PS (BBRCI+PS), however, reduced the average liver weight in a strong, statistically significant, and synergistic manner compared to liver weights in the BBRCI and PS groups.

[3] = tested on: hamsters fed a diet containing 0.25% cholesterol; assay: Example 3: five week hamster study, blood lipid levels, 0.25% cholesterol diet, 0.5% PS; assay type: in vivo, male Golden Syrian hamsters; conditions: BBRCI 100 mg/kg·d and/or PS 0.5% (w/w)
Protocol: In this example, a controlled, five week animal study was performed. Four randomized groups of 12 or 6 male Golden Syrian hamsters were fed isocaloric diets as follows. The dosage of PS was reduced from 1% to 0.5% (w/w) in the diet. Hamster husbandry, living and feeding conditions were similar to that in Example 1. • Control a semi-synthetic casein-corn starch-sucrose diet that contained 0.25% (w/w) cholesterol • BBRCI control diet containing 100 mg/kg·d of BBRCI • PS control diet containing 0.5% (w/w) PS • BBRCI+PS control diet containing 100 mg/kg·d BBRCI and 0.5% (w/w) PS One objective of this example was to determine the effects of each intervention on circulating blood lipids including total cholesterol (T-C), high-density-lipoprotein cholesterol (HDL-C), nonHDL-C (which is indicative of LDL-C levels) and triglyceride (TG) profiles. Table 8 summarizes the effect on blood lipid levels (values are means±SD, n=12). Data were analyzed by one-way ANOVA followed by Tukey test if significance was detected. A significant difference was indicated by a p<0.05. […] When BBRCI and PS were given to hamsters simultaneously, significant synergistic actions were observed on […] and TG levels. A synergistic action of BBRCI and PS was also observed on the ratio of HDL-C and nonHDL-C.

[4] = 0.25% cholesterol diet, 5 weeks, means±SD

COc1ccc2cc3[n+](cc2c1OC)CCc1cc2c(cc1-3)OCO2 [BBRCI, Berberine chloride]
ABCG5 mRNA expression (intestinal ABCG5 mRNA): 2.37 ± 0.70^a
HMG-CoA reductase mRNA expression [1]: 0.98 ± 0.10^b
CYP27A1 mRNA expression (liver CYP27A1 mRNA): 1.27 ± 0.31
Heart, tissue weight to body weight ratio [2]: 0.37 ± 0.03
Liver, tissue weight to body weight ratio [2]: 4.67 ± 0.38^ab
Right kidney, tissue weight to body weight ratio [2]: 0.35 ± 0.03
nonHDL-C Concentration ([3]; 0.25% cholesterol diet, 5 weeks): 173.5 ± 66.5^ab mg/dl
HDL-C Concentration [3, 4]: 93.1 ± 27.1 mg/dL
T-C Concentration [3, 4]: 264.7 ± 49.8^a mg/dl
TG Concentration [3, 4]: 549.1 ± 225.3^a mg/dl
HDL-C % difference from Control ([3]; Example 3, 5 weeks): 1.7%
HDL-C/nonHDL-C % difference from Control ([3]; Example 3, 5 weeks): 29%
T-C % difference from Control ([3]; Example 3, 5 weeks): −7.8%
TG % difference from Control ([3]; Example 3, 5 weeks): −0.2%
nonHDL-C % difference from Control ([3]; Example 3, 5 weeks): −11.1%
HDL-C/nonHDL-C ([3]; ratio, 0.25% cholesterol diet, 5 weeks): 0.66 ± 0.41^b

From patent publication US8895079B2, “Combinations of botanical extracts for promoting cardiovascular health” (National Research Council of Canada, priority 2005, dated 2014)
